This passage reports EC50, IC50 and AC50 results from ChEMBL document CHEMBL1201862, “PubChem BioAssay data set” (2004).

The nature of test [1]: Luminescence Cell-Based Dose Response HTS to Identify Inhibitors of 5'UTR Stem-Loop Driven Prion Protein mRNA Translation in H4 Neuroglioblastoma Cells. [Related pubchem assays: 1827 (Project Summary), 1813 (Primary HTS)]. It counts as functional.
Test [2] deals with T1, Voltage-gated N-type calcium channel alpha-1B subunit/Amyloid beta A4 precursor protein-binding family A member 1 (Homo sapiens, UniProt Q00975+Q02410). It counts as protein assay.
Test [3] addresses T1, Voltage-gated N-type calcium channel alpha-1B subunit/Amyloid beta A4 precursor protein-binding family A member 1. The test is classed as protein assay. This is another data set of the same source.
Test [4] is described as follows: inhibitors of firefly luciferase expression or activity, dose response, H4 neuroglioma cells, luminescence (AID 1990). The test is classed as functional, cell-based.
Test [5] is described as follows: inhibitors of SNCA 5'UTR-driven reporter translation, confirmation, H4 neuroglioma cells, luminescence (AID 1988). The test is classed as functional, cell-based.
A short description of test [6]: HEK293T cell cytotoxicity, dose response, cytotoxicity control for HIV Vif inhibitor project, cherry-picks (AID 652208). It counts as functional, cell-based.
The target of test [7] is T2, Beta-lactamase (Salmonella choleraesuis (strain SC-B67), UniProt Q5J463). The test can be described thus: Epi-absorbance-based counterscreen for selective VIM-2 inhibitors: dose response biochemical high throughput screening assay to identify inhibitors of TEM-1 serine-beta-lactamase. A general note: The purpose of a counterscreen is to sort out artefacts and off-target activity.

The target in test [8] is T3, Beta-lactamase (Pseudomonas aeruginosa, UniProt Q79MP6). The test can be described thus: IMP-1 metallo-beta-lactamase inhibitors, dose response, selectivity assay for VIM-2 inhibitor project, biochemical, epi-absorbance (AID 1920).
Test [9] has as its target T3, Beta-lactamase. The test can be described thus: […] counterscreen for selective VIM-2 inhibitors: dose response biochemical high throughput screening assay to identify inhibitors of IMP-1 metallo-beta-lactamase.
In test [10] the target is T3, Beta-lactamase.
Test [11] deals with T2, Beta-lactamase.
The next test concerns the target T4, Exodeoxyribonuclease V (Escherichia coli (strain K12), UniProt P04993+P07648+P08394).
T4 sequence (P04993 whole entry): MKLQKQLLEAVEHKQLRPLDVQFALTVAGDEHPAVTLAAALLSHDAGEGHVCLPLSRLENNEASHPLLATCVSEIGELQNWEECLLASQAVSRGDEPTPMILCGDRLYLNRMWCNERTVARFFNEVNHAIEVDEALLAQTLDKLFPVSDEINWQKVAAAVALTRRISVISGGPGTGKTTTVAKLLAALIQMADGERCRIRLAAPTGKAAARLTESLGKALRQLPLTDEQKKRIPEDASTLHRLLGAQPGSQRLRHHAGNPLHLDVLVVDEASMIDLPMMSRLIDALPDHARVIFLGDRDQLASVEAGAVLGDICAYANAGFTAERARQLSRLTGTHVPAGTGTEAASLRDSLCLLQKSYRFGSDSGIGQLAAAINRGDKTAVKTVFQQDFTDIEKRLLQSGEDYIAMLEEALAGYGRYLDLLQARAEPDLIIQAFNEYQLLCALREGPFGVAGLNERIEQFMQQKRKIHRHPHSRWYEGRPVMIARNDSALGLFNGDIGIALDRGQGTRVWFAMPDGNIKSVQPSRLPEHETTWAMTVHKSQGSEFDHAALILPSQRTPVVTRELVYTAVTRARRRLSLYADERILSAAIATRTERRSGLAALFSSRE
T4 sequence (P07648 whole entry): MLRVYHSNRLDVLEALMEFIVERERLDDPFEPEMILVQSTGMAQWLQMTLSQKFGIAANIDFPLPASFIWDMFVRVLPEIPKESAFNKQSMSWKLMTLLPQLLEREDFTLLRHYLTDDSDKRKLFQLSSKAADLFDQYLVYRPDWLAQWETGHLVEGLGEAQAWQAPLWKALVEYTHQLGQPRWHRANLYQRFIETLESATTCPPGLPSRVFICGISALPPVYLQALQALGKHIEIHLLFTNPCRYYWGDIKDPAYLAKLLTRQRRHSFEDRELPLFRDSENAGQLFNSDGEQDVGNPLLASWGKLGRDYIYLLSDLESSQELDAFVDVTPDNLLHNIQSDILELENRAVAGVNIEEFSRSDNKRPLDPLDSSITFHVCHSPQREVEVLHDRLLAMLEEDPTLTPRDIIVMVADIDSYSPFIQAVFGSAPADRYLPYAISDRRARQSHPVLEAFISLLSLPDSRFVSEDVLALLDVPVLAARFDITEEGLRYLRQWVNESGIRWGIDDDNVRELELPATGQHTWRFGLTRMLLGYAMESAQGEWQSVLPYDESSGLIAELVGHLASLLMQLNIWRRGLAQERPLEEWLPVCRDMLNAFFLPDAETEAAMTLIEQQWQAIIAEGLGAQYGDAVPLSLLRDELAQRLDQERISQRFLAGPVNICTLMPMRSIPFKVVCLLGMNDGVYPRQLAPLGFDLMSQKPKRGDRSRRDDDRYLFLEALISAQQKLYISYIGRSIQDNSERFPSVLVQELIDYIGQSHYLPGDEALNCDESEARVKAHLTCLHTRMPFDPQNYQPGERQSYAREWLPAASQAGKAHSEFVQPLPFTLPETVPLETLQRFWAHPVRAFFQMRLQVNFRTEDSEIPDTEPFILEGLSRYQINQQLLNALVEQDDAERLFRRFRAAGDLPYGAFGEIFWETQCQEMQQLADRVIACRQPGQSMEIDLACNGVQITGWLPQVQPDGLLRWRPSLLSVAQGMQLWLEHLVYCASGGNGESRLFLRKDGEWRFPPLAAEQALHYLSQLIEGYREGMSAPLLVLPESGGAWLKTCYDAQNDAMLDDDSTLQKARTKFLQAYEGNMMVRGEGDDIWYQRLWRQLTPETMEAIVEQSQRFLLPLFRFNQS
T4 sequence (P08394 whole entry): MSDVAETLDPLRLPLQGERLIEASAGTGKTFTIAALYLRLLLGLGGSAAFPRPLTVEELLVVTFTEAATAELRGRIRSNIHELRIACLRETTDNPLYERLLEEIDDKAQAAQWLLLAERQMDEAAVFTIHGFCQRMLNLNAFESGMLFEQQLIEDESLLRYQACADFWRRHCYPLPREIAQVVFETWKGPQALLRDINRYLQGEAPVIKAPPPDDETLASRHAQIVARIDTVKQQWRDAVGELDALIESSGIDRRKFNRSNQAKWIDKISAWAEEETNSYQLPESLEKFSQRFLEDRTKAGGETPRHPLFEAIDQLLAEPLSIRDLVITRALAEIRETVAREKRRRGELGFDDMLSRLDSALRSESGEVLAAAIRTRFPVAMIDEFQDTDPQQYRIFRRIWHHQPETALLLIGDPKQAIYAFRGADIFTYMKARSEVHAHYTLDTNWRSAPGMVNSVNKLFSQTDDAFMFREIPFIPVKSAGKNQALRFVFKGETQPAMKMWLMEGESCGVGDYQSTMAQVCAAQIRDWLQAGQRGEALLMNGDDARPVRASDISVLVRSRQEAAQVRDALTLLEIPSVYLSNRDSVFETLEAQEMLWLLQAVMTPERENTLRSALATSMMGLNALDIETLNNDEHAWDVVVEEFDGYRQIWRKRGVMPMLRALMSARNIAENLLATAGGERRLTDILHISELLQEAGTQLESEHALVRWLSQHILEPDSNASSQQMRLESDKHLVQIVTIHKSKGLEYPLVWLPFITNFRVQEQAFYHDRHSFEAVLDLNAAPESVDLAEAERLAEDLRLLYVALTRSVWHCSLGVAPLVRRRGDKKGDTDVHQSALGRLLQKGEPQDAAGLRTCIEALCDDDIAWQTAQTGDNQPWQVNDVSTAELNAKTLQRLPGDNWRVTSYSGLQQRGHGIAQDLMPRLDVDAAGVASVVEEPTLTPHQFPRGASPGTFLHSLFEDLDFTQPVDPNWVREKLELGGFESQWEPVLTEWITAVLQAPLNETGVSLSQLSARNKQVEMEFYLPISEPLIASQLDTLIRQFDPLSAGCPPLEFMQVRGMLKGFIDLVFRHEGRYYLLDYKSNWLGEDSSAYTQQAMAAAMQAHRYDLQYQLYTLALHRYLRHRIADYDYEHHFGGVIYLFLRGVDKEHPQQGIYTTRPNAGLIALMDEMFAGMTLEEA
The test can be described thus: E. coli RecBCD inhibitors, dose response, counter-screen for AddAB inhibitor project, absorbance, V66 E. coli, mutant T4 phage (AID 492957). It counts as functional, cell-based, Escherichia coli str. K-12 substr. MG1655.

The nature of test [12]: Counterscreen for AddAB inhibitors: absorbance-based bacterial cell-based high throughput dose response assay for inhibitors of bacterial viability. [Related pubchem assays (depositor defined):AID435030, AID449728, AID449731, AID488942, AID488955, AID488956]. It counts as functional.
The next test concerns the target Albumin (Bos taurus, UniProt P02769). The test can be described thus: Counterscreen for inhibitors of T-cell receptor (TCR)-CD3 interaction: Fluorescence-based biochemical high throughput dose response assay to identify inhibitors of T-cell receptor (TCR)-CD3 interaction using a TAMRA-labeled BSA probe. The test is classed as functional.
The target of test [13] is T5, Scavenger receptor class B member 1 (Mus musculus, UniProt Q61009). The test can be described thus: inhibitors of SR-BI dependent HDL uptake, dose response, ldlA[mSR-BI] CHO cells, fluorescence plate reader, dry powder, set 9 (AID 623880). It counts as functional, cell-based.
Test [14] can be described thus: cytotoxicity in ldlA[mSR-BI] CHO cells, dose response, cytotoxicity control for SR-BI HDL uptake inhibitor project, cell-based, CellTiter-Glo, 24 h, powder samples, set 7 (AID 624026). The test is classed as functional. For orientation: In ATP-based viability assays light output follows the ATP content of the culture.
Test [15] deals with T5, Scavenger receptor class B member 1. The test can be described thus: inhibitors of SR-BI-mediated HDL uptake, dose response, cell-based, ldlA[mSR-BI] CHO, DiI fluorescence, dry powder, set 10 (AID 624029). It counts as functional.
A short description of test [16]: HEK293 Cytotoxicity Assay Measured in Cell-Based System Using Plate Reader - 7071-01_Inhibitor_Dose_CherryPick_Activity_Set2. The test is classed as functional.
A further test deals with HeLa. The test can be described thus: HeLa cell cytotoxicity, dose response, cytotoxicity control, ATP luminescence, cherry-pick samples (AID 687004). It counts as functional, cell-based. The note with it: Homo sapiens.
The test system of a further test is HEK293. The test can be described thus: HEK293T cell cytotoxicity, dose response, cytotoxicity control, ATP luminescence, cherry-pick samples (AID 687005).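 Note: cells exposed to compound for 48 hours.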 The test is classed as functional, cell-based. As to conditions: Homo sapiens.
Test [17] in a line: intracellular Trypanosoma cruzi inhibitors in host cells – cell-based, plate reader, cherry-pick samples, set 3, dose response (AID 651818).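 Note: compounds incubated with infected cells for about four days.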 The test is classed as functional.
For test [18], the target named is Nuclear receptor subfamily 5 group A member 2 (Homo sapiens, UniProt O00482). The test is classed as functional, cell-based.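 Note: HEK293T cells transfected with LRH-1 and a StAR promoter luciferase reporter; potency for inhibitors that lower LRH-1 driven reporter light.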
The nature of test [19]: StAR promoter reporter inhibition counter-screen, dose response, counter-screen for LRH-1 inverse agonist project, cell-based, luminescence, luciferase reporter (AID 651969). The test is classed as functional.
Another test addresses Steroidogenic factor 1 (Homo sapiens, UniProt Q13285). The test can be described thus: Counterscreen for inverse agonists of the liver receptor homolog-1 (LRH-1; NR5A2): Luminescence-based cell-based high throughput dose response assay to identify inverse agonists of the Steroidogenic Factor 1 Nuclear Receptor (SF1; NR5A1). It counts as functional.
Test [20] deals with Fructose-bisphosphate aldolase (Mycobacterium tuberculosis, UniProt P9WQA3). The test can be described thus: Fluorescence-based biochemical high throughput dose response assay for inhibitors of the fructose-bisphosphate aldolase (FBA) of M. tuberculosis. It counts as functional.

The source made the active and inactive calls.

For orientation: EC50 means the midpoint of the concentration-response curve. As a reminder, the IC50 is the midpoint of a concentration-inhibition curve. Usually AC50 stands for the concentration giving half of the maximal activity seen.

T3 sequence (Q79MP6 whole entry): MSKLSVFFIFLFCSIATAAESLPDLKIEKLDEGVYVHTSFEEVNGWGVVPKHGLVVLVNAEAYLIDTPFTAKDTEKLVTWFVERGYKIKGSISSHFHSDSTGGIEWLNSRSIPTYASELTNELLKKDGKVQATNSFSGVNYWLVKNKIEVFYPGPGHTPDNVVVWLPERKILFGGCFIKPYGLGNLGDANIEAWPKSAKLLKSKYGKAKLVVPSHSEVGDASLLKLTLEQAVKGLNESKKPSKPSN
T5 sequence (Q61009 whole entry): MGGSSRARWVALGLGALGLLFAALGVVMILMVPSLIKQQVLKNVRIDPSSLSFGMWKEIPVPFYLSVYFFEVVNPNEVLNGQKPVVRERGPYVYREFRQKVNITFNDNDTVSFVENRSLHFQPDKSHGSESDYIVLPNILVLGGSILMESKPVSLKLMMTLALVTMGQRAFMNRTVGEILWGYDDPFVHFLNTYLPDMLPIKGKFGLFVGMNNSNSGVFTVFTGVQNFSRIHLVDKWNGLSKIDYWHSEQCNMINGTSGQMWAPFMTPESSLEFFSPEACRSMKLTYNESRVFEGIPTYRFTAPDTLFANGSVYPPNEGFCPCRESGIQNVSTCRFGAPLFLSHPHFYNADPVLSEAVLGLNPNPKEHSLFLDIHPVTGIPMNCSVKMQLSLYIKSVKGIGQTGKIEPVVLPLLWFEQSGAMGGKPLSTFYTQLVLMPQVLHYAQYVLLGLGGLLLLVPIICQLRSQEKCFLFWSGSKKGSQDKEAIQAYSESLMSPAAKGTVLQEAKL
T2 sequence (Q5J463 whole entry): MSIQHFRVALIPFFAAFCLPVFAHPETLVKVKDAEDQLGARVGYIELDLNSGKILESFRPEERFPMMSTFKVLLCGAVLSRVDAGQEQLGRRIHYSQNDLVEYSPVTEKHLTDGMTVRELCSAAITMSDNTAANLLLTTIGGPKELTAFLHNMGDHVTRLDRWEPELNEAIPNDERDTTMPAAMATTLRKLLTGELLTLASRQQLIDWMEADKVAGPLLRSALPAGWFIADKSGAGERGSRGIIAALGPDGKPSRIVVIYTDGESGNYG
T1 sequence (Q00975 whole entry): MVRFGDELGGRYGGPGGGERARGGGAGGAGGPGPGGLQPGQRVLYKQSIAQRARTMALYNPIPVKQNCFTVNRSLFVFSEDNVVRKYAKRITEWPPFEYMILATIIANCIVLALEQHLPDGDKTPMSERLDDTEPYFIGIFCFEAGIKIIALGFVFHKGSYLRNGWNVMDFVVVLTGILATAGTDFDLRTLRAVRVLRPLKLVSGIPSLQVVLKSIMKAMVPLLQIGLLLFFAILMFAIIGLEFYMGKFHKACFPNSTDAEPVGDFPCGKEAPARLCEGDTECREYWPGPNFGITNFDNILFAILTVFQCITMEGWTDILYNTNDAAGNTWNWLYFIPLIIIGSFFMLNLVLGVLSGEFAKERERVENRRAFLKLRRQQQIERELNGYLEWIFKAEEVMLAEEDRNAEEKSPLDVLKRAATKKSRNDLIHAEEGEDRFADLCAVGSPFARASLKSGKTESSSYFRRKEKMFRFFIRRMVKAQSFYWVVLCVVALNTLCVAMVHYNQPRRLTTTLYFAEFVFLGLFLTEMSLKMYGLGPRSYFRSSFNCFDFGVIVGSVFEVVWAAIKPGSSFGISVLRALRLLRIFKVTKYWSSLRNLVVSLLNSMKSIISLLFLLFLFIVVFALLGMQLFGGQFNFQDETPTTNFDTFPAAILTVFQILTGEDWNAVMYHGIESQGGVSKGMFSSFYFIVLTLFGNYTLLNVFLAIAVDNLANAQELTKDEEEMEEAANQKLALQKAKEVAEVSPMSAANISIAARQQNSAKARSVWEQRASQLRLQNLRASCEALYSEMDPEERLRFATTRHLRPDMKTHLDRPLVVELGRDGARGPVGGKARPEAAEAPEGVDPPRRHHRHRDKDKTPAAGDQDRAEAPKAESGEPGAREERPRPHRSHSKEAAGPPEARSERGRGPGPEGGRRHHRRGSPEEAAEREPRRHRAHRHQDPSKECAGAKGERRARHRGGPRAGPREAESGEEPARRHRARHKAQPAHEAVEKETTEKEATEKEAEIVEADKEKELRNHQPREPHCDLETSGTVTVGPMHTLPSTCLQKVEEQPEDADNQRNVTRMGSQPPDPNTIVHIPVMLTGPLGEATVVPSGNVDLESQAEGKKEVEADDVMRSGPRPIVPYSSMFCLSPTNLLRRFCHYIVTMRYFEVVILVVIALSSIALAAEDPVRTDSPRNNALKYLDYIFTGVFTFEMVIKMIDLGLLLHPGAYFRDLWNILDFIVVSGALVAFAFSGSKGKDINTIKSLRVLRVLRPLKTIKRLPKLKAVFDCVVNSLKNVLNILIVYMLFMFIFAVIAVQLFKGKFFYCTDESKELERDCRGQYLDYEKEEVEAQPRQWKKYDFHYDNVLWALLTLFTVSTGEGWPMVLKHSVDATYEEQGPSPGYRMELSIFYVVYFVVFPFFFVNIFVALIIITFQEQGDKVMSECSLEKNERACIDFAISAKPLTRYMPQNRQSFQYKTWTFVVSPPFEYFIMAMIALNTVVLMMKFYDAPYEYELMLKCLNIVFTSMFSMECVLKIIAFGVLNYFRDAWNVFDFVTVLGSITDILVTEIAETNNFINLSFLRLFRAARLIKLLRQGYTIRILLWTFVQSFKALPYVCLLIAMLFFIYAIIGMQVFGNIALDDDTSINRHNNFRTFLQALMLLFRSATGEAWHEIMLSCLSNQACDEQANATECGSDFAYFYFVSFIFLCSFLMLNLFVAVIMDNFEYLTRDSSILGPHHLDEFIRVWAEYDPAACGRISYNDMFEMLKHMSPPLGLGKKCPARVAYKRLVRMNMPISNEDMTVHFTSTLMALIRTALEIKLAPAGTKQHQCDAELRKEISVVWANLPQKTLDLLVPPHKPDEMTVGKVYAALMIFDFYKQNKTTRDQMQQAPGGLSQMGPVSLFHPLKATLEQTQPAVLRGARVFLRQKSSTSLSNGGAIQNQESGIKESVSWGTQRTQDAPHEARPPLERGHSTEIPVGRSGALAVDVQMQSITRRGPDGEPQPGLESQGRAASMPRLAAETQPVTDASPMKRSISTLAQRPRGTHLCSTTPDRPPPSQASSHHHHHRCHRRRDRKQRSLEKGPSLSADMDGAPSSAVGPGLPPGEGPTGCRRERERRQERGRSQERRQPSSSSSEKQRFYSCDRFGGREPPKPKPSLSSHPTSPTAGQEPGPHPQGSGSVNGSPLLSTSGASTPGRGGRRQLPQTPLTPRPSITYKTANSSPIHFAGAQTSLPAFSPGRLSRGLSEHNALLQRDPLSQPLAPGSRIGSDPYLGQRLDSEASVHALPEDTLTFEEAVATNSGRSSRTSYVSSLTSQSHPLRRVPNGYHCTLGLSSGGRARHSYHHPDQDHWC
T1 sequence (Q02410 whole entry): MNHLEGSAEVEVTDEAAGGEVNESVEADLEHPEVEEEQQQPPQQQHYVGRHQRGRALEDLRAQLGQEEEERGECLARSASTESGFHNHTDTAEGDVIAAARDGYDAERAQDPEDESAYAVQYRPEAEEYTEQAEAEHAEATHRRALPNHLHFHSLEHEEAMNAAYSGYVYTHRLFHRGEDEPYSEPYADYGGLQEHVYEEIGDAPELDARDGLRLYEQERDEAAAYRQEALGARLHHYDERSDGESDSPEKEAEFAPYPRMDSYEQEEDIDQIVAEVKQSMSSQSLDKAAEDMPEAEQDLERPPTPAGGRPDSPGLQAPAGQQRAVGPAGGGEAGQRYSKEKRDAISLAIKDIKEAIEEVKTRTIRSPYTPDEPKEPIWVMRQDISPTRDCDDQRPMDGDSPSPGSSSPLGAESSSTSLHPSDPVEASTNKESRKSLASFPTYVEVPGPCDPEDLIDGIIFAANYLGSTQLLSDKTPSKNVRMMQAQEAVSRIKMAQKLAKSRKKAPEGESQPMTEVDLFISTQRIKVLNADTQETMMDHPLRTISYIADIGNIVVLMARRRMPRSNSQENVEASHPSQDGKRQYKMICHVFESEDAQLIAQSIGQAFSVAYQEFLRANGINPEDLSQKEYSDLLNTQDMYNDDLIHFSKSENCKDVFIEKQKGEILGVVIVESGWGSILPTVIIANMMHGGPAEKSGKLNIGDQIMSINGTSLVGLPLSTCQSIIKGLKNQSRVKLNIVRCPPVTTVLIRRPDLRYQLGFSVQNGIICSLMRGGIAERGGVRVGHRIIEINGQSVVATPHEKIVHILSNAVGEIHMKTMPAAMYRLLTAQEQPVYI
Chain of Fructose-bisphosphate aldolase (P9WQA3 whole entry): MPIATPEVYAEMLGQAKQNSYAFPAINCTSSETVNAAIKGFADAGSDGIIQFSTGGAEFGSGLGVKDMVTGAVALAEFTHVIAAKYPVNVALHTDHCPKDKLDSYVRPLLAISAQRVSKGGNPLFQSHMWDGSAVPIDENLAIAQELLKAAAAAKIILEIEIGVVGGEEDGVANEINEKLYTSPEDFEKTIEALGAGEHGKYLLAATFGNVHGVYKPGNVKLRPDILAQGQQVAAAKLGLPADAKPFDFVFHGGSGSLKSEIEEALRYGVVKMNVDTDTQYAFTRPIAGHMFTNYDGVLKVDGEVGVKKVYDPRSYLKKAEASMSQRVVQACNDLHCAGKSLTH
Chain of Steroidogenic factor 1 (Q13285 whole entry): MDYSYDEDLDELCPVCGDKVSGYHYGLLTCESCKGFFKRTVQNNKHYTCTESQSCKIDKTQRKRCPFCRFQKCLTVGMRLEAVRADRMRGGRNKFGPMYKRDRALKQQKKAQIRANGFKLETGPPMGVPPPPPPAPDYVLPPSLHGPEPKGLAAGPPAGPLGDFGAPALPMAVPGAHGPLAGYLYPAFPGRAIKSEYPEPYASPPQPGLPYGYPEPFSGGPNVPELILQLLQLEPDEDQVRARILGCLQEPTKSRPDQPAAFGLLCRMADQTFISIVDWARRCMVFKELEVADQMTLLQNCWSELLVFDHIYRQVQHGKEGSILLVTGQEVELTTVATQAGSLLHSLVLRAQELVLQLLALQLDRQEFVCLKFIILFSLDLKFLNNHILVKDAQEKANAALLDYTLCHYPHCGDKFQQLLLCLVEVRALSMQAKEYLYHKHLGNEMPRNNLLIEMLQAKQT

Regarding `CCOC(=O)c1cc(-c2ccccc2)sc1NC(=O)COC(=O)c1cccc(S(N)(=O)=O)c1`, the values for the EC50 in test [1], in [4] and in test [5] were > 120 µM (not active), 13.4 µM (active) and 12.8 µM (active), respectively. The IC50 in [2] is > 50 µM (inactive); in [3], 4.51 µM (active). The concentration at half-maximal activity (AC50) in test [6] is 21.3 µM (active).

Take `CC(=O)c1ccc(-c2ccc(Cn3c(C)nc4cc(N)c(C)nc43)cc2)cc1`: the IC50 at Beta-lactamase [7], at Beta-lactamase [8] and at Beta-lactamase [9] was > 59.6 µM (inactive) each time.

`CCN(CC)c1ccc2cc(C=O)c(=O)oc2c1`: the results for the IC50 at Beta-lactamase [10] and at Beta-lactamase [11] were 57.9 µM (inactive) and 26.7 µM (inactive), respectively.

`COc1ccc(/C=C2\SC(=O)N(CC(=O)NNC(=O)c3ccccc3O)C2=O)cc1OC`: the IC50 at Exodeoxyribonuclease V was > 119 µM (inactive); in [12] it was > 119 µM (inactive); on Albumin it was > 94.1 µM (inactive).

As to `CC(C)(C)OC(=O)N1CCN(c2ccc(NC(=O)c3cc([N+](=O)[O-])ccc3Cl)cc2)CC1`, the AC50 in test [13] was 0.503 µM (active); in test [14], > 70 µM (inactive); in test [15], 0.953 µM (active).

Turning to `C[C@H](CO)N1C[C@H](C)[C@H](CN(C)Cc2ccc(-c3ccccc3)cc2)Oc2c(NC(=O)c3ccncc3)cccc2C1=O`, the AC50 in test [16] is 14.2 µM (active); in the test with HeLa it was > 52 µM (inactive); with HEK293, 14.2 µM (active); in test [17] it was 0.08 µM (active).

As for `COc1cc(/C=N/n2nnnc2N)ccc1OCc1c(C)no[n+]1[O-]`, the IC50 in test [18] was 12.4 µM (inactive); in test [19], 35.9 µM (inactive); on Steroidogenic factor 1 it was 6.23 µM (active).

Regarding `CCCNC(=O)c1c(N)n(-c2ccc(S(N)(=O)=O)cc2)c2nc3ccccc3nc12`, the IC50 in test [20] is 0.673 µM (active).
